Drawing on ChEMBL document CHEMBL1147629, “Beyond U0126. Dianion chemistry leading to the rapid synthesis of a series of potent MEK inhibitors” (Bioorg Med Chem Lett, 2004), this text covers IC50, ED50 and inhibition for 49 compounds.

Structures are written as SMILES. pIC50: −log10 of the molar value.

Test [1] concerns the target T1, Dual specificity mitogen-activated protein kinase kinase 1 (Homo sapiens, UniProt Q02750). Put plainly: Inhibitory potency against mitogen activated protein kinase kinase 1.
Target sequence in this assay (Q02750 whole entry): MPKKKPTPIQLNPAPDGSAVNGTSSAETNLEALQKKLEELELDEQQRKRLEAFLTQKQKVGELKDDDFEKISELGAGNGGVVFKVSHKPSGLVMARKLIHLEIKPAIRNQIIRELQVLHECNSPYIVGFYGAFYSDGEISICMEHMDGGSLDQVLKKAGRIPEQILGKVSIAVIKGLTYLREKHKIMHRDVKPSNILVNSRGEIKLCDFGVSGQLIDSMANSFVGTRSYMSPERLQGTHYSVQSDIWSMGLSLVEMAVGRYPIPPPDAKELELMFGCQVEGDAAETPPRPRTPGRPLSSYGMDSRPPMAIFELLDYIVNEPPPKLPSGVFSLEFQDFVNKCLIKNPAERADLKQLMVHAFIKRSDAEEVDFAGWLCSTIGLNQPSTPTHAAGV
The test system of test [2] is COS-7. Put plainly: Inhibitory concentration against AP-1 transcription in COS-7 cells. The note with it: Chlorocebus aethiops.
Test [3] concerns COS-7.
In test [4] the target is T2, Dual specificity mitogen-activated protein kinase kinase 3 (Homo sapiens, UniProt P46734).
T2 sequence (P46734 whole entry): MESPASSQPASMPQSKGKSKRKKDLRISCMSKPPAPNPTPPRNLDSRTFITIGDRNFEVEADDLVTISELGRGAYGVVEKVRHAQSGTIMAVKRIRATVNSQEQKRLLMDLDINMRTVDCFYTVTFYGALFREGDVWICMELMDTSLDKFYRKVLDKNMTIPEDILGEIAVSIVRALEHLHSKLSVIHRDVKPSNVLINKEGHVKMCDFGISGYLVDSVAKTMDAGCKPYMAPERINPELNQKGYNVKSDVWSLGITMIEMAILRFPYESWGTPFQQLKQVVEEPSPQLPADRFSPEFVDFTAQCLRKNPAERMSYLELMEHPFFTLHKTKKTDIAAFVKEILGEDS
The experiment in a line: Inhibitory potency against MAP kinase kinase 3 (MKK3). It counts as functional.

Test [5] is described as follows: Inhibitory potency against Mitogen activated protein kinase kinase 4. The format is functional.
The test system of a further test is Mus musculus. The experiment in a line: In vivo effective dose against TPA-induced ear edema in mouse upon intraperitoneal administration. It counts as functional. The settings on record: ip.
Test [6] deals with T1, Dual specificity mitogen-activated protein kinase kinase 1. The experiment in a line: Inhibitory potency against mitogen activated protein kinase kinase 1 at 10 uM.
Target sequence in this assay (Q02750 whole entry, looked up): as the sequence (Q02750 whole entry) above

As to `N#C/C(=C(/N)Sc1ccccc1O)c1cccc(C(O)c2cccc([N+](=O)[O-])c2)c1` (stereo not drawn), the values for the pIC50 (in test [1]; with COS-7 [2]) were 7.60 and 5.49, respectively. Turning to `N#C/C(=C(/N)Sc1ccccc1N)c1cccc(C(O)c2ccccn2)c1` (stereo not drawn), the negative logarithm of the IC50 (pIC50) (usually −log10 of the IC50, conventionally taken in molar units) with COS-7 [2] was 4.93. The same measure, in the same setting: in the case of `N#C/C(=C(/N)Sc1ccccc1N)c1cccc(C(O)c2ccco2)c1` (stereo not drawn) it was 4.91. `N#C/C(=C(/N)Sc1ccccc1N)c1cccc(C(O)c2ccoc2)c1` (stereo not drawn) had a pIC50 with COS-7 [2] of 5.15.

Regarding `N#C/C(=C(/N)Sc1ccccc1N)c1cccc(C(O)c2ccccc2)c1` (stereo not drawn), in the test with COS-7 [2], the pIC50 was 5.68. Against the preceding compound, the pIC50 is 0.53 log units higher.

For the compound `N#C/C(=C(/N)Sc1ccccc1N)c1cccc(C(O)c2cccc(C(F)(F)F)c2)c1` (stereo not drawn), the figures for the pIC50 (in test [1]; in the test on COS-7 [2]) were 7.28 and 5.24, respectively.

For the compound `CC(C)(O)c1cccc(/C(C#N)=C(\N)Sc2ccccc2N)c1`, the pIC50 in test [1] is 6.47; with COS-7 [2], 4.40. The like results for `N#C/C(=C(/N)Sc1ccccc1N)c1cccc(C(O)c2ccc(C(F)(F)F)cc2)c1` (stereo not drawn) were, in that order, 7.24 and 5.40.

In turn, `N#C/C(=C(/N)Sc1ccccc1N)c1cccc(C(=O)c2ccccc2)c1` gave a pIC50 in the test with COS-7 [2] of 5.21. On the same count and under the same terms, in the case of `N#C/C(=C(/N)Sc1ccccc1O)c1cccc(C(O)c2ccc(C#N)cc2)c1` (stereo not drawn) it was 6.19.

Consider `CC(O)(c1ccccc1)c1cccc(/C(C#N)=C(\N)Sc2ccccc2N)c1` (stereo not drawn), for which, in the test on COS-7 [3], the IC50 result is listed as “Not Active”.

For `N#C/C(=C(/N)Sc1ccccc1N)c1cccc(C(O)c2ccncc2)c1` (stereo not drawn), the pIC50 in test [4] is less than 6.00; in test [5] it was less than 6.00; with COS-7 [2] it was 5.85. The 50% effect level in the test with Mus musculus (ED50) was put at a dose of 5 mg/kg. On to `CC(O)c1cccc(/C(C#N)=C(\N)Sc2ccccc2N)c1` (stereo not drawn), for which the pIC50 in test [1] was 6.74; with COS-7 [2], 4.18.

In the case of `N#C/C(=C(/N)Sc1ccccc1N)c1cccc(C(O)c2ccc3ccccc3c2)c1` (stereo not drawn), the pIC50 was 7.12 in test [1] and 5.49 in the test with COS-7 [2]. Consider `N#C/C(=C(/N)Sc1ccccc1N)c1cccc(C(O)c2ccc([N+](=O)[O-])cc2)c1` (stereo not drawn), for which the values for the pIC50 (in test [1]; with COS-7 [2]) were 8.10 and 6.52, respectively. The like results for `COC(=O)c1ccc(C(O)c2cccc(/C(C#N)=C(\N)Sc3ccccc3N)c2)cc1` (stereo not drawn) were, in that order, 7.85 and 6.54. For the compound `N#C/C(=C(/N)Sc1ccccc1N)c1cccc(C(O)C2CCCCC2)c1` (stereo not drawn), the pIC50 in test [1] was 7.25; in the test on COS-7 [2], 5.35. For the compound `N#C/C(=C(/N)Sc1ccc(N)cc1)c1cccc(C(O)c2ccccc2)c1` (stereo not drawn), the pIC50 in the test on COS-7 [2] was 4.97. Compound `Cc1ccccc1C(O)c1cccc(/C(C#N)=C(\N)Sc2ccccc2N)c1` (stereo not drawn) showed a pIC50 in the test on COS-7 [2] of 5.57. Turning to `N#C/C(=C(/N)Sc1ccccc1N)c1cccc(C(O)c2cccs2)c1` (stereo not drawn), the pIC50 in test [1] was 7.77; in the test on COS-7 [2] it was 5.65. The like results for `C[n+]1ccc(C(O)c2cccc(/C(C#N)=C(\N)Sc3ccccc3N)c2)cc1` (stereo not drawn) were, in that order, 6.48 and 4.30. Compound `N#C/C(=C(/N)Sc1ccccc1N)c1cccc(Oc2ccccc2)c1` gave a pIC50 with COS-7 [2] of 5.52. Take `N#C/C(=C(/N)Sc1ccccc1N)c1cccc(C(O)(c2ccccc2)c2ccccc2)c1`: the pIC50 in test [1] was 5.65. The IC50 entry in the test with COS-7 [3] is recorded as “Not Active”. For the compound `N#C/C(=C(/N)Sc1ccccc1N)c1cccc(C(O)c2ccsc2)c1` (stereo not drawn), the pIC50 is 7.77 in test [1] and 5.62 in the test with COS-7 [2]. `N#C/C(=C(/N)Sc1ccccc1N)c1ccc(C(=O)c2ccccc2)cc1` showed a pIC50 in the test with COS-7 [2] of 5.50. Same read-out and setting: in the case of `N#C/C(=C(/N)Sc1ccccc1N)c1cccc(C(O)c2cccnc2)c1` (stereo not drawn) it was 5.57. In the case of `N#C/C(=C(/N)Sc1ccccc1N)c1cccc(C(O)c2c(F)c(F)c(F)c(F)c2F)c1` (stereo not drawn), in test [1], the pIC50 is 7.36. The same measure, in the same setting: with `N#CC(=C(N)Sc1ccccc1N)c1ccccc1` the figure was 6.85.

In the case of `N#C/C(=C(/N)Sc1ccccc1N)c1cccc(C(O)c2ccc3c(c2)OCCO3)c1` (stereo not drawn), the figures for the pIC50 (in test [1]; with COS-7 [2]) were 7.60 and 5.68, respectively. `Cc1ccc(C(O)c2cccc(/C(C#N)=C(\N)Sc3ccccc3N)c2)cc1` (stereo not drawn) showed a pIC50 in the test on COS-7 [2] of 5.52.

Regarding `N#C/C(=C(/N)Sc1ccccc1N)c1cccc(Cc2ccccc2)c1`, the pIC50 with COS-7 [2] is 5.49. Take `N#C/C(=C(/N)Sc1ccccc1N)c1cccc(C(O)c2cccc(C#N)c2)c1` (stereo not drawn): the figures for the pIC50 (in test [1]; with COS-7 [2]) were 7.89 and 5.97, respectively. `Cc1ccccc1C(O)c1cccc(/C(C#N)=C(\N)Sc2ccc(N)cc2)c1` (stereo not drawn) showed a pIC50 in the test on COS-7 [2] of 5.44. In turn, `N#CC(=C(/N)Sc1ccccc1N)/C(C#N)=C(\N)Sc1ccccc1N` gave a pIC50 in the test with COS-7 [2] of 6.00.

With `Cc1ccc(C(O)c2cccc(/C(C#N)=C(\N)Sc3ccc(N)cc3)c2)cc1` (stereo not drawn), the IC50 result with COS-7 [3] is “Not Active”. The compound `N#C/C(=C(/N)Sc1ccc(N)cc1)c1cccc(Cc2ccccc2)c1` gave a pIC50 in the test with COS-7 [2] of 4.41. In test [1], `N#C/C(=C(/N)Sc1ccc(N)cc1)c1cccc(C(O)c2ccc(C#N)cc2)c1` (stereo not drawn) showed a pIC50 of 7.28. On to `Cc1cccc(C(O)c2cccc(/C(C#N)=C(\N)Sc3ccc(N)cc3)c2)c1` (stereo not drawn), for which the IC50 result in the test on COS-7 [3] is “Not Active”. For the compound `N#C/C(=C(/N)Sc1ccccc1N)c1cccc(C(O)c2cccc([N+](=O)[O-])c2)c1` (stereo not drawn), the pIC50 in test [1] is 7.77; in the test with COS-7 [2], 5.80. In turn, `Cc1cccc(C(O)c2cccc(/C(C#N)=C(\N)Sc3ccccc3N)c2)c1` (stereo not drawn) had a pIC50 with COS-7 [2] of 5.62. Regarding `N#C/C(=C(/N)Sc1ccccc1N)c1cccc(C(O)Cc2ccccc2)c1` (stereo not drawn), the pIC50 in the test on COS-7 [2] is 4.70. In test [1], `CN(C(=O)c1cccc(/C(C#N)=C(\N)Sc2ccccc2N)c1)c1ccccc1` gave a pIC50 of 5.40. In the case of `N#C/C(=C(/N)Sc1ccccc1N)c1cccc(C(O)c2ccc(-c3nnn(C(c4ccccc4)(c4ccccc4)c4ccccc4)n3)cc2)c1` (stereo not drawn), the negative-log IC50 (pIC50) in test [1] was 6.59; in the test on COS-7 [2], 5.16. On to `CN(C(=O)c1cccc(/C(C#N)=C(\N)Sc2ccc(N)cc2)c1)c1ccccc1`, for which, in test [6], the inhibition (in general, how much of the control response was suppressed) was found to be 45%. Turning to `N#C/C(=C(/N)Sc1ccccc1N)c1cccc(C(O)c2cccc3ccccc23)c1` (stereo not drawn), the figures for the pIC50 (in test [1]; in the test on COS-7 [2]) were 7.33 and 5.59, respectively. As for `N#C/C(=C(/N)Sc1ccccc1N)c1cccc(C(O)c2ccc(C#N)cc2)c1` (stereo not drawn), the pIC50 in test [1] is 8.15; in the test with COS-7 [2], 6.49.

`COc1ccccc1S/C(N)=C(\C#N)c1cccc(C(O)c2ccc(C#N)cc2)c1` (stereo not drawn): the IC50 entry with COS-7 [3] is given as “Not Active”.

As to `N#C/C(=C(/N)Sc1ccccc1N)c1cccc(C(O)c2ccc([N+](=O)[O-])cc2[N+](=O)[O-])c1` (stereo not drawn), the results for the pIC50 (in test [1]; in the test on COS-7 [2]) were 8.10 and 6.52, respectively. Take `N#C/C(=C(/N)Sc1ccccc1)c1cccc(C(O)c2ccc(C#N)cc2)c1` (stereo not drawn): the pIC50 in test [1] was 7.28; in the test with COS-7 [2], 5.92.
